The values below are quoted from earlier work in patent publication US20060046268A1, “Diagnosis of anemia and optimizing treatment for heart repair” (Australian Stem Cell Centre Ltd., priority 2004, published 2006).

In the series the test system is renal transplant patients. The conditions noted are these: reversed upon ceasing administration of the drug, Vlahakos et al., Am J Kidney Dis 17:199-205.

As for `CCOC(=O)[C@H](CCc1ccccc1)N[C@@H](C)C(=O)N1CCC[C@H]1C(=O)O` [Enalapril], the “anemia (impact on function of the hematopoietic system)” value is “reversible anemia”.
